Type in all cases: physicochemical
The nature of data set [1]: NOx production of mixed foams, Thermoscientific 42iQLS Gas Analyzer. As to conditions: 0.4 M, 0.5 M, 0.6 M ascorbic acid as first (A) solution + second (B) solution without BAC; compared to citric acid; FIG. 4. The protocol: Methods. Solutions A and B were agitated by vigorous shaking until they produced foams. Then, two pumps of foam A (from Solution A) and foam B (from Solution B) were added to a weigh boat, and then the resulting mixture was thoroughly mixed with a gloved finger for five seconds. The resulting mixture was then placed in the sample chamber for measurement using a Thermoscientific 42iQLS Gas Analyzer. The measured concentration of the NOx produced was recorded every ten seconds. Using the Ideal Gas Law, the mass in mols of NOx was calculated.
The first (A) solution was prepared as described in Example 1, except BAC was not included. The second (B) solution was prepared by dissolving salicylic acid in a stoichiometric amount of sodium hydroxide dissolved in water. Once all of the salicylic acid was dissolved, sodium nitrite and coco betaine were added. The first (A) and second (B) solutions were then mixed. A foam was produced upon the mixing/priming of the first (A) solution and the second (B) solution.
Three solutions of ascorbic acid (0.4 M, 0.5 M, and 0.6 M) were prepared and used as first (A) solutions. The second (B) solution was as provided in Example 1 except that BAC was not included. The solutions were poured into small foam dispensers. One squirt of foam from each of the first (A) solution and the second (B) solution was combined in a weight boat and NOx formation was measured.

Data set [2] can be described thus: Mixing of lidocaine HCl solution into the first (A) solution in a stable manner. The note with it: first (A) solution not including BAC; monitoring time three minutes. The source says:
The monitoring time was three minutes.

Data set [3] is described as follows: NOx release from mixed liquids, Thermoscientific 42iQLS Gas Analyzer. The source says:
For the NO release testing, one mL of each solution was dispensed into a weight boat using the pipetter. A new pipette tip was used for each aliquot. For NO release measurements, the weigh boat was then placed into the sampling bin of a Thermoscientific 42iQLS Gas Analyzer, and the lid placed on top. The analyzer began measuring NOx released from the mixed liquid in the weigh boat as indicated by the rise of both the NO and NO2 measurements on the screen of the analyzer, a 10-minute timer was started.
Once the datalogger had collected 70 time points (700 seconds) of data: • 1. the data logging program was halted • 2. The weigh boat was removed from the chamber and disposed of in a separate room • 3. A fan was used to blow fresh air into the testing chamber for 10 seconds • 4. The next test was conducted when the analyzer measured less than 5 ppm total NOx […]
About 1 mL of Manuka honey was mixed with 1 mL of standard second (B) solution (not including BAC). […]

Data set [4] is described as follows: pH of lidocaine HCl solution, calibrated lab pH meter. The note with it: 4 percent solution in water. The protocol:
A 4% w/w solution of lidocaine in deionized water was prepared. The pH of the solution was measured using a conventional calibrated lab pH meter.

The structures appear in SMILES notation. Entries after “also recorded” stand apart in the source; their conditions may differ. Counter-ions that a name gives are not always drawn.

Take `O=C1O[C@H]([C@@H](O)CO)C(O)=C1O` [ascorbic acid]: the “production of NOx” value in data set [1] was “lower levels of production of NOx than citric acid”.
On to `CCN(CC)CC(=O)Nc1c(C)cccc1C` [lidocaine HCl], for which the “reaction on mixing with the standard first (A) solution” value in data set [2] is reported as “No reaction was observed”. Further, the NOx release entry in data set [3] (4 percent lidocaine HCl solution mixed with second (B) solution (no BAC) only, FIG. 6) is reported as “NO was produced; also recorded: Only a small amount of NOx was released”; in data set [3] (4 percent lidocaine HCl solution mixed with standard first (A) and second (B) solutions (no BAC), FIG. 7), “NO was also produced; also recorded: a large amount of NOx was released”. The same molecule had a pH in data set [4] of 4.16.

These data come from US20240382517A1, “Topical Pharmaceutical Skin Composition for the Delivery of Nitric Oxide in Combination with Other Topical Dermatologic Agents” (NOxy Health Products, Inc., priority 2023, published 2024).
